# Measured values: patent US8609725B2, “Method of using beta-hydroxy-beta-methylbutyrate for reducing tumor growth rate” (Abbott Laboratories, priority 2004, dated 2013)
# Columns and labels:
# [1] = tested on: mice bearing the MAC16 tumor; experiment: Weight loss, food and water intake in mice bearing the MAC16 tumor; type: in vivo, NMRI mice; details: doses of HMB greater than 0.125 g/kg, p.o. by gavage daily
# Text: This study evaluates the effect of HMB, in comparison with EPA or combination, on weight loss induced by the MAC16 tumor and the mechanisms involved. […] Pure strain male NMRI mice (average weight 25 g) were obtained from our own inbred colony and were transplanted with fragments of the MAC16 tumor s.c. into the flank by means of a trochar, selecting from donor animals with established weight loss as described in Bibby, M. C. et al. Characterization of a transplantable adenocarcinoma of the mouse colon producing cachexia in recipient animals. J. Natl. Cancer Inst., 78: 539-546, 1987. Transplanted animals were fed a rat and mouse breeding diet (Special Diet Services, Witham, United Kingdom) and water ad libitum, and weight loss was evident 10-12 days after tumor implantation. Animals just prior to the development of weight loss were randomized to receive daily either EPA (in olive oil), HMB (in PBS) or the combination as described in the figure legends administered p.o. by gavage, while control animals received either olive oil or PBS. EPA (98% as free acid) was purchased from Biomol Research Laboratories Inc., PA, USA. HMB (as the calcium salt) was obtained from Abbott Laboratories, Columbus, Ohio, USA. All groups contained a minimum of 6 mice. Tumor volume, body weight and food and water intake were monitored daily. […]
# [2] = tested on: gastrocnemius muscle of mice bearing the MAC16 tumor; experiment: Protein synthesis and degradation in gastrocnemius muscle of MAC16 mice; type: in vivo
# Procedure: Protein synthesis was measured by the incorporation of L-[4-3H]phenylalanine during a 2-hour period in which isolated gastrocnemius muscles were incubated at 37° C. in RPMI 1640 without phenol red and saturated with O2/CO2 (19:1). After incubation muscles were rinsed in nonradioactive medium, blotted dry, and homogenized in 4 mL 2% perchloric acid. The rate of protein synthesis was calculated by dividing the protein-bound radioactivity by the acid-soluble (unbound) material. For protein degradation assays animals from the same group as used to measure protein synthesis were given i.p. 0.4 mmol/L L-[4-3H]phenylalanine in PBS (100 μl) 24 hours prior to the assay. Isolated gastrocnemius muscles were extensively washed with PBS and RPMI 1640 before measuring the release of radioactivity into RPMI 1640 over a 2-hour period. The protein-bound activity was determined by homogenizing the muscles in 2% perchloric acid and determining the non-acid-soluble radioactivity (radioactivity in the precipitate). The rate of protein degradation was calculated by dividing the amount of [^3H]phenylalanine radioactivity released into the incubation medium during the 2-hour incubation period by the specific activity of protein-bound [^3H] phenylalanine.
# p42/44 MAPK (ERK1, ERK2) = experiment: PIF-induced phosphorylation of ERK 1/2 (p42/44 MAPK) in murine myotubes; type: cell-based
# Procedure: (§1) For Western blot analysis, cytosolic protein (2 to 5 μg) obtained for the above assay were resolved on 10% SDS-PAGE and transferred to 0.45 μm nitrocellulose membrane, which had been blocked with 5% Marvel in PBS, at 4° C. overnight. The primary antibodies were used at a dilution of 1:100 (anti-actin and PKCα); 1:500 (anti-ERK1 and 2); 1:1000 (anti-20S proteasome β-subunit and I-κBα); 1:1500 (anti-20S proteasome α-subunit) or 1:5000 (anti-p42), while the secondary antibodies were used at a dilution of 1:2000. Incubation was carried out for 2 h at room temperature and development was by ECL. Loading was quantitated by actin concentration.
# The in vitro study described in Example III above also evaluated the effect of HMB on molecules that are key mediators in the pathway of inflammation. This experiment was conducted as described in Example III.
# rats and chicks = details: cited from earlier work
# proteasome = experiment: Functional proteasome 'chymotrypsin-like' enzyme activity in gastrocnemius muscle of MAC16 mice; type: in vivo, NMRI mice; details: HMB 0.25 g/kg, EPA 0.6 g/kg or combination, 3 days
# Procedure: Functional proteasome activity was determined by measuring the ‘chymotrypsin-like’ enzyme activity, the predominant proteolytic activity of the β-subunits of the proteasome according to the method of Orino, E. et al. ATP-dependent reversible association of proteasomes with multiple protein components to form 26S complexes that degrade ubiquitinated proteins in human HL-60 cells. FEBS Lett., 284: 206-210, 1991. Muscles were rinsed with ice-cold PBS, minced and sonicated in 20 mM Tris. HCl, pH 7.5, 2 mM ATP, 5 mM MgCl2 and 1 mM DTT. The sonicate was then centrifuged for 10 min at 18,000 g, at 4° C. and the supernatant was used to determine ‘chymotrypsin-like’ enzyme activity by the release of aminomethyl coumarin (AMC) from the fluorogenic substrate succinyl-LLVY-AMC. Activity was measured in the absence and presence of the specific proteasome inhibitor lactacystin (10 μM). Only lactacystin suppressible activity was considered to be proteasome specific.
# [3] = tested on: proteasome 20S α subunits, β subunits and p42; experiment: Western blot of PIF-induced proteasome subunit expression in C2C12 myotubes; type: cell-based, murine; details: 50 μM; PIF at 4.2 and 10 nM
# Procedure: as §1
# [4] = tested on: p42, ATPase subunit of the 19S regulator; experiment: Western blotting of p42 in gastrocnemius muscle of MAC16 mice; type: in vivo, NMRI mice
# [5] = tested on: mice bearing the MAC16 tumor; experiment: Body composition analysis of mice bearing the MAC16 tumor; type: in vivo
# Text: Materials and animals were obtained as per Example 1.
# NF-κB = NF-κB nuclear accumulation / binding to DNA (EMSA) in murine myotubes; type: cell-based
# Procedure: DNA binding proteins were extracted from myotubes by the method of Andrews, N. C. et al. A rapid micropreparation technique for extraction of DNA-binding proteins from limiting numbers of mammalian cells. Nucleic Acids Res., 19: 2499, 1991, which utilizes hypotonic lysis followed by high salt extraction of nuclei. The EMSA (electrophoretic mobility shift assay) binding assay was carried out according to the manufacturer's instructions. The in vitro study described in Example III above also evaluated the effect of HMB on molecules that are key mediators in the pathway of inflammation. This experiment was conducted as described in Example III.
# [6] = HMB 0.25 and 2.5 g/kg daily p.o., 3 days, vs PBS control
# [7] = avg., 1996 abstract, normal rats and chicks
structure (smiles),measurement,setting,value
"CC(C)(O)CC(=O)O [HMB, beta-hydroxy-beta-methylbutyric acid]",weight loss,[1],significant reduction in weight loss
same,protein degradation in gastrocnemius muscle,[2]; [6],attenuated
same,protein synthesis in gastrocnemius muscle,[2]; [6],significantly increased
same,increase in the ratio of protein synthesis to protein degradation in muscle,[2]; HMB 0.25 g/kg,14 fold
same,increase in the ratio of protein synthesis to protein degradation in muscle,[2]; HMB 2.5 g/kg,32 fold
same,attenuation of PIF-induced phosphorylation of p42/44,"p42/44 MAPK (ERK1, ERK2); 25 μM HMB",not HMB at 25 μM
same,attenuation of PIF-induced phosphorylation of p42/44,"p42/44 MAPK (ERK1, ERK2); 50 μM",completely attenuated
same,change of protein breakdown,rats and chicks; [7],−18%
same,stimulation of protein synthesis,rats and chicks; [7],6%
same,effect on protein synthesis,"rats and chicks; later paper (2000), same model in rats and chicks",no significant effect
same,functional proteasome activity ('chymotrypsin-like' enzyme activity),proteasome,attenuated
same,"attenuation of PIF-increased expression of proteasome 20S α subunits, β subunits and p42",[3],attenuated
same,expression of p42,"[4]; HMB 0.25 g/kg, EPA 0.6 g/kg or combination, 3 days",equally effective
same,reduction of protein expression of p42,[4]; summary of Examples I-IV,at least 50%
same,Fat (%),[5]; HMB 0.125 g/kg for 5 days,3.3 ± 1.6%
same,Nonfat (%),[5]; HMB 0.125 g/kg for 5 days,31.2 ± 1.5 %
same,Water (%),[5]; HMB 0.125 g/kg for 5 days,65.5 ± 0.9%
same,Fat (%),[5]; HMB 0.25 g/kg for 5 days,4.4 ± 1.3%
same,Nonfat (%),[5]; HMB 0.25 g/kg for 5 days,29.2 ± 1.9 %
same,Water (%),[5]; HMB 0.25 g/kg for 5 days,66.5 ± 2.2%
same,Fat (%),[5]; HMB 0.5 g/kg for 5 days,3.8 ± 1.2%
same,Nonfat (%),[5]; HMB 0.5 g/kg for 5 days,29.0 ± 1.4 %
same,Water (%),[5]; HMB 0.5 g/kg for 5 days,67.2 ± 2.3%
same,adipose tissue,"[5]; HMB for 5 days, in words",without an effect
same,nonfat carcass mass,"[5]; HMB for 5 days, in words",significant increase
same,inhibition of binding of NF-κB to DNA,NF-κB; 25 μM HMB,Only partial inhibition
same,nuclear accumulation of NF-κB,NF-κB; 50 μM HMB,prevent nuclear accumulation of NF-κB
